Measurements as given in patent US5955578A, “Polypeptide-polymer conjugates active in wound healing” (La Jolla Cancer Research Foundation, priority 1995, dated 1999).
Where no end group is shown, it is not given here. [ ]: non-standard residue; d: D form.

Experiments:
[1] = system: full thickness skin incisions; experiment: Wound tensile strength in rat full thickness dermal incisions; type: in vivo, Wistar Furth rats
Protocol: Wistar Furth adult male rats (175-250g) were anesthetized by intraperitoneal injection of pentobarbital (60 mg/kg body weight). The rats dorsal area was closely shaved, and each animal was positioned and secured for surgery. Using aseptic technique, five full thickness skin incisions, 1.5 cm long, were made on the dorsal area. Each incision was treated with 0.05-0.10 ml of a blind sample of the peptide RRRRRRGDSPK-conjugated to hyaluronate or with 0.05-0.10 ml of human fibronectin (3 mg/ml in PBS, Colloborative Research, Bedford, Mass.) or rat fibronectin (2 mg/ml in PBS, Telios Pharmaceuticals, San Diego, Calif.) or was left untreated as a control. After treatment, the incisions were closed using standard 4-0 nylon sutures for placement of 5 to 7 interrupted sutures. The rats were returned to their cages for recovery and observation. At post operative days 2 through 7 and 10, six animals were anesthetized as above and were euthanized by an intracardiac injection of 0.5 cc of T-61.
Following euthanasia, the pelt was removed from the rat and 5 mm wide by 2 cm long skin strips bisecting incisions were prepared. Histological specimens from the skin adjacent to the tensile strength strip were also taken. To measure tensile strength, one end of the strip was clipped using a 1 mm Michel Clipper (Militex Instruments Co.) which was tied to a Grass model FTO3C force displacement transducer. The other end of the strip was clipped using a light weight hemostat which was attached to a Harvard Model 901 push-pull infusion pump (Harvard Instruments, Millis, Mass.) using cotton thread over a pulley. The transducer was attached to a Grass polygraph (Model 7D) for recording the results. After calibration, the pump was turned on to pull at the rate of 64 mm/min. The amount of force required to pull the skin apart at the incision was recorded on the polygraph.

[2] = system: PVA sponges implanted under the skin; experiment: Polyvinylalcohol sponge implant model; type: in vivo, rats
Protocol: Peptide-hyaluronate conjugates were tested using the model of Davidson, et al., J. Cell Biol. 100: 1219-1227 (1985), which is incorporated herein by reference. This model involves the implantation of inert PVA sponges loaded with the conjugates or control materials under the skin of rats. The sponges were removed from the animals at 4 to 10 days after implantation and analyzed for cell ingrowth number and type and as collagen content, blood vessel formation (angiogenesis) and inflammatory response, as well as persistence of the conjugate in the wound.

dry eye condition = experiment: Dry eye syndrome induced by excision of tear ducts; type: in vivo; conditions: cats; eye drops from day 17 to day 43; conjugate at 100 mg/ml
Protocol: The dry eye conditon was induced in six cats on day zero by the excision of tear ducts from the eyes. The cats were divided into two groups and treated as follows:
Group one was treated with two drops of human fibronectin, 3 mg/ml, a day twice a day from day 17 to day 34, and two drops a day three times a day from day 34 to 43. Group two was treated with two drops of chondroitin sulfate-peptide conjugate, G(dR)5 G3 (dR)GDSPASSK 100 mg/ml, a day twice a day from days 17 to 34, and two drops a day three times a day from day 34 to day 43.

[3] = In vitro assays of the type described in Pierschbacher et al. (1983); type: cell-based
[4] = early time points, effect diminishing at later time points

RRRRRRGDSPK-conjugated to hyaluronate: peptide RRRRRRGDSPK coupled to hyaluronic acid by EDC, method of Example II (also: conjugated to hyaluronic acid by EDC)
wound strength, % of the strength of untreated wounds ([1]; day 5 after incision (maximum effect), 0.05-0.10 ml per incision): 211%
wound strength versus untreated control ([1]; days 3 through 7 after incision): increased
angiogenesis [2, 4]: increased
collagen secretion [2, 4]: increased
fibroblast migration [2, 4]: increased
collagen deposition into the sponges versus control sponges ([2]; up to the end of the experiment): more collagen was continuously deposited

chondroitin sulfate-peptide conjugate: peptide of Example I, G(dR)5G3(dR)GDSPASSK, coupled to chondroitin sulfate with EDC; 74 mg peptide/g conjugate (G[dR][dR][dR][dR][dR]GGG[dR]GDSPASSK; also: coupled to chondroitin sulfate with EDC)
dry eye condition (impression cytology, rose bengal staining) (dry eye condition): marked reduction of the dry eye condition

conjugates employing the peptide G(dR)5 G3 (dR)GDSPASSK: peptide G(dR)5G3(dR)GDSPASSK coupled to hyaluronic acid with EDC, 20 to 30% peptide by weight (G[dR][dR][dR][dR][dR]GGG[dR]GDSPASSK; also: coupled to hyaluronic acid with EDC)
wound strength, % of control ([1]; day 2): 160%
wound strength activity versus control (persistence) ([1]; through day 10): greater than control
in vitro activity compared with the conjugate of Example V [3]: more activity than the RGGDSPK peptide conjugate
